Laboratory results: the NIST ThermoML archive (doi:10.1021/acs.jced.7b00712)
Numbers after ± are expanded uncertainties.

Details: Liquid, Brillouin light scattering

CCCCCCCC [octane]
Details	speed of sound [m/s]
296.97 K, 100 kPa	1173 ± 15
297.28 K, 4000 kPa	1196.5 ± 16
297.34 K, 7000 kPa	1222 ± 16
297.35 K, 12000 kPa	1250.8 ± 16
297.38 K, 10000 kPa	1242.7 ± 16
303.33 K, 7000 kPa	1199.7 ± 16
303.38 K, 10000 kPa	1213.7 ± 16
303.42 K, 12000 kPa	1233 ± 16
303.53 K, 4000 kPa	1172.7 ± 15
303.61 K, 100 kPa	1151.7 ± 15
318.11 K, 10000 kPa	1164.8 ± 15
318.3 K, 4000 kPa	1121.2 ± 15
318.35 K, 7000 kPa	1141.4 ± 15
318.37 K, 100 kPa	1089.5 ± 14
318.37 K, 12000 kPa	1184.5 ± 15
332.26 K, 4000 kPa	1066.7 ± 14
332.32 K, 10000 kPa	1108.6 ± 14
332.33 K, 7000 kPa	1089.1 ± 14
332.5 K, 100 kPa	1029.1 ± 13
332.56 K, 12000 kPa	1128.3 ± 15
347.29 K, 7000 kPa	1031.9 ± 13
347.37 K, 10000 kPa	1053.4 ± 14
347.4 K, 4000 kPa	1007.2 ± 13
347.46 K, 12000 kPa	1072.7 ± 14
347.68 K, 100 kPa	970.1 ± 13
362.12 K, 10000 kPa	1006.2 ± 13
362.17 K, 7000 kPa	979.6 ± 13
362.28 K, 4000 kPa	955.4 ± 12
362.53 K, 100 kPa	912.3 ± 12
363.67 K, 12000 kPa	1027.8 ± 13
377.03 K, 4000 kPa	909.7 ± 12
377.33 K, 7000 kPa	933.5 ± 12
377.35 K, 10000 kPa	960.5 ± 12
377.5 K, 100 kPa	855.4 ± 11
379.75 K, 12000 kPa	973.9 ± 13
390.8 K, 4000 kPa	860.1 ± 11
391 K, 7000 kPa	892.3 ± 12
391.09 K, 10000 kPa	917.4 ± 12
391.61 K, 100 kPa	806.4 ± 10
394.67 K, 12000 kPa	920.8 ± 12
403.71 K, 12000 kPa	896.1 ± 12
407.38 K, 4000 kPa	802.1 ± 10
407.45 K, 10000 kPa	865.2 ± 11
407.46 K, 7000 kPa	836.9 ± 11
412.59 K, 4000 kPa	786.2 ± 10
412.65 K, 7000 kPa	818.8 ± 11
412.71 K, 10000 kPa	846.7 ± 11
414.33 K, 12000 kPa	864 ± 11
422.61 K, 10000 kPa	818.2 ± 11
422.69 K, 12000 kPa	844.3 ± 11
422.73 K, 4000 kPa	747.2 ± 9.8
422.88 K, 7000 kPa	784.5 ± 10
431.77 K, 12000 kPa	815.2 ± 11
431.82 K, 4000 kPa	720.1 ± 9.4
431.88 K, 7000 kPa	754.2 ± 9.9
431.92 K, 10000 kPa	789.8 ± 10
442.23 K, 4000 kPa	682.1 ± 8.9
442.49 K, 7000 kPa	723.8 ± 9.5
442.65 K, 10000 kPa	755.7 ± 9.9
442.73 K, 12000 kPa	779.7 ± 10
452.55 K, 4000 kPa	646.4 ± 8.5
452.64 K, 7000 kPa	689.9 ± 9
452.77 K, 10000 kPa	728.1 ± 9.5
452.88 K, 12000 kPa	750.8 ± 9.8
462.37 K, 4000 kPa	614.7 ± 8.1
462.45 K, 7000 kPa	660.1 ± 8.7
462.61 K, 12000 kPa	724.2 ± 9.4
465.54 K, 10000 kPa	695.8 ± 9.1
472.05 K, 4000 kPa	579.7 ± 7.7
472.15 K, 7000 kPa	631.6 ± 8.3
472.28 K, 10000 kPa	676.9 ± 8.9
472.38 K, 12000 kPa	693.8 ± 9.1
482.98 K, 4000 kPa	543 ± 7.2
483.04 K, 7000 kPa	599.7 ± 7.9
483.12 K, 10000 kPa	646.1 ± 8.5
483.14 K, 12000 kPa	672.7 ± 8.8
493.41 K, 4000 kPa	503.5 ± 6.7
493.48 K, 7000 kPa	565.4 ± 7.5
493.62 K, 10000 kPa	614.7 ± 8.1
493.73 K, 12000 kPa	645 ± 8.5
502.54 K, 4000 kPa	477.8 ± 6.4
502.73 K, 7000 kPa	537.1 ± 7.1
502.95 K, 10000 kPa	590.5 ± 7.8
503.17 K, 12000 kPa	616.5 ± 8.1
513 K, 4000 kPa	439.1 ± 6
513.26 K, 7000 kPa	506.5 ± 6.8
513.46 K, 10000 kPa	563.1 ± 7.5
513.67 K, 12000 kPa	591.5 ± 7.8
522.92 K, 4000 kPa	407.7 ± 5.7
523.17 K, 12000 kPa	570.6 ± 7.6
523.46 K, 7000 kPa	478.6 ± 6.5
523.6 K, 10000 kPa	533.3 ± 7.1
532.23 K, 4000 kPa	373.2 ± 5.3
532.36 K, 7000 kPa	450.6 ± 6.2
532.59 K, 10000 kPa	511.4 ± 6.8
532.79 K, 12000 kPa	545.1 ± 7.2
537.4 K, 4000 kPa	354.7 ± 5.1
537.75 K, 7000 kPa	436.8 ± 6
538.1 K, 10000 kPa	497.5 ± 6.7
538.41 K, 12000 kPa	530.4 ± 7
542.87 K, 4000 kPa	337.8 ± 5
543.27 K, 12000 kPa	520.1 ± 6.9
543.83 K, 7000 kPa	422 ± 5.8
544.52 K, 10000 kPa	483.1 ± 6.5
546.68 K, 4000 kPa	325.7 ± 4.8
547.82 K, 7000 kPa	406.8 ± 5.7
548.6 K, 10000 kPa	471.5 ± 6.4
549.27 K, 12000 kPa	505.4 ± 6.7
550.42 K, 4000 kPa	315.2 ± 4.7
552.01 K, 7000 kPa	398.1 ± 5.6
552.52 K, 10000 kPa	465.1 ± 6.3
552.88 K, 12000 kPa	500.8 ± 6.7
557.27 K, 4000 kPa	290.5 ± 4.5
558.19 K, 7000 kPa	380.2 ± 5.4
558.64 K, 10000 kPa	448 ± 6.1
559.37 K, 12000 kPa	486.2 ± 6.5
561.2 K, 4000 kPa	276.7 ± 4.5
561.87 K, 7000 kPa	372.6 ± 5.3
562.27 K, 10000 kPa	441.3 ± 6
562.71 K, 12000 kPa	477.8 ± 6.4
566.82 K, 7000 kPa	356.5 ± 5.2
566.96 K, 10000 kPa	430.4 ± 5.9
567.01 K, 4000 kPa	257.3 ± 4.3
567.1 K, 12000 kPa	471 ± 6.3
570.16 K, 4000 kPa	245.6 ± 4.2
570.2 K, 7000 kPa	347.6 ± 5.1
570.48 K, 10000 kPa	424 ± 5.8
570.75 K, 12000 kPa	461 ± 6.2
